This test addresses T1, recombinant human baculovirus-expressed GST-tagged FASN (Homo sapiens, UniProt P49327).
T1 construct: GST; host or cells: baculovirus expression system (insect cells implied)
The experiment in a line: FASN enzyme activity assay: fluorescence-based detection of CoA with CPM. It is filed as biochemical. The settings on record: 5 nM FASN, 150 μM NADPH, 10 μM acetyl-CoA, 25 μM malonyl-CoA, 90 minutes incubation. An excerpt: FASN Enzyme activity may be determined by detecting coenzyme A (CoA), a product of FASN-catalyzed synthesis of palmitate from acetyl-CoA and malonyl-CoA with NADPH as a cofactor. The assay is fluorescence-based and measures the interaction of free CoA with 7-diethylamino-3-(4′-malemimidylphenyl)-4-methylcoumarin (CPM; Life Technologies, CA) as described in Chung et al (2008). The coumarin derivative CPM contains a thiol-reactive maleimide that becomes fluorescent upon interaction with the sulfhydryl group of CoA.
For the example compounds described herein, the reaction was performed in 384-well low volume non-binding platews (Corning, NY) using recombinant human baculovirus-expressed GST-tagged FASN. The 20-μL assay mixture contained 50 mM HEPES (pH 7.5), 5 nM FASN, 150 μM NADPH (Sigma, St. Louis, MO), 10 μM acetyl-CoA (Sigma), 25 μM malonyl-CoA (Sigma) and test compound [diluted in dimethyl sulfoxide (DMSO); 0.5% DMSO final in assay after 100 nL addition]. See, Chung et al.; “A fluorescence-based thiol quantification assay for ultra-high-throughput screening for inhibitors of coenzyme A production,” Assay Drug Dev Tech 2008; 6:361-374.
The reaction was initiated by adding malonyl-CoA, followed by incubation for 90 minutes at […]. A stock solution of the CPM reagent was prepared in DMSO al 66 μM and stored at […]. To detect CoA produced in the FASN reaction, the CPM stock was diluted to 50 μM in 70% ethanol and added at 4 μL/well to the assay place. The reaction mixture was then incubated for 30 minutes. Fluorescence was measured using the EnVision™ 2102 multi-label plate reader (PerkinElmer, Waltham, MA) utilizing a general dual mirror, a 390 nm excitation filter and a 530 nm emission filter. Data analysis was performed using ActivityBase (IDBS, Guilford, UK). IC50 values were calculated by plotting the percent inhibition versus log 10 of the concentration of the compound, and fitting to the nonlinear regression sigmoidal dose-response (variable slope) equation in XLFit (IDBS).

The source of these data is patent US11878966B2, “Substituted 4-benzyl and 4-benzoyl piperidine derivates” (89BIO LTD, priority 2015, dated 2024).

T1 sequence (P49327 whole entry): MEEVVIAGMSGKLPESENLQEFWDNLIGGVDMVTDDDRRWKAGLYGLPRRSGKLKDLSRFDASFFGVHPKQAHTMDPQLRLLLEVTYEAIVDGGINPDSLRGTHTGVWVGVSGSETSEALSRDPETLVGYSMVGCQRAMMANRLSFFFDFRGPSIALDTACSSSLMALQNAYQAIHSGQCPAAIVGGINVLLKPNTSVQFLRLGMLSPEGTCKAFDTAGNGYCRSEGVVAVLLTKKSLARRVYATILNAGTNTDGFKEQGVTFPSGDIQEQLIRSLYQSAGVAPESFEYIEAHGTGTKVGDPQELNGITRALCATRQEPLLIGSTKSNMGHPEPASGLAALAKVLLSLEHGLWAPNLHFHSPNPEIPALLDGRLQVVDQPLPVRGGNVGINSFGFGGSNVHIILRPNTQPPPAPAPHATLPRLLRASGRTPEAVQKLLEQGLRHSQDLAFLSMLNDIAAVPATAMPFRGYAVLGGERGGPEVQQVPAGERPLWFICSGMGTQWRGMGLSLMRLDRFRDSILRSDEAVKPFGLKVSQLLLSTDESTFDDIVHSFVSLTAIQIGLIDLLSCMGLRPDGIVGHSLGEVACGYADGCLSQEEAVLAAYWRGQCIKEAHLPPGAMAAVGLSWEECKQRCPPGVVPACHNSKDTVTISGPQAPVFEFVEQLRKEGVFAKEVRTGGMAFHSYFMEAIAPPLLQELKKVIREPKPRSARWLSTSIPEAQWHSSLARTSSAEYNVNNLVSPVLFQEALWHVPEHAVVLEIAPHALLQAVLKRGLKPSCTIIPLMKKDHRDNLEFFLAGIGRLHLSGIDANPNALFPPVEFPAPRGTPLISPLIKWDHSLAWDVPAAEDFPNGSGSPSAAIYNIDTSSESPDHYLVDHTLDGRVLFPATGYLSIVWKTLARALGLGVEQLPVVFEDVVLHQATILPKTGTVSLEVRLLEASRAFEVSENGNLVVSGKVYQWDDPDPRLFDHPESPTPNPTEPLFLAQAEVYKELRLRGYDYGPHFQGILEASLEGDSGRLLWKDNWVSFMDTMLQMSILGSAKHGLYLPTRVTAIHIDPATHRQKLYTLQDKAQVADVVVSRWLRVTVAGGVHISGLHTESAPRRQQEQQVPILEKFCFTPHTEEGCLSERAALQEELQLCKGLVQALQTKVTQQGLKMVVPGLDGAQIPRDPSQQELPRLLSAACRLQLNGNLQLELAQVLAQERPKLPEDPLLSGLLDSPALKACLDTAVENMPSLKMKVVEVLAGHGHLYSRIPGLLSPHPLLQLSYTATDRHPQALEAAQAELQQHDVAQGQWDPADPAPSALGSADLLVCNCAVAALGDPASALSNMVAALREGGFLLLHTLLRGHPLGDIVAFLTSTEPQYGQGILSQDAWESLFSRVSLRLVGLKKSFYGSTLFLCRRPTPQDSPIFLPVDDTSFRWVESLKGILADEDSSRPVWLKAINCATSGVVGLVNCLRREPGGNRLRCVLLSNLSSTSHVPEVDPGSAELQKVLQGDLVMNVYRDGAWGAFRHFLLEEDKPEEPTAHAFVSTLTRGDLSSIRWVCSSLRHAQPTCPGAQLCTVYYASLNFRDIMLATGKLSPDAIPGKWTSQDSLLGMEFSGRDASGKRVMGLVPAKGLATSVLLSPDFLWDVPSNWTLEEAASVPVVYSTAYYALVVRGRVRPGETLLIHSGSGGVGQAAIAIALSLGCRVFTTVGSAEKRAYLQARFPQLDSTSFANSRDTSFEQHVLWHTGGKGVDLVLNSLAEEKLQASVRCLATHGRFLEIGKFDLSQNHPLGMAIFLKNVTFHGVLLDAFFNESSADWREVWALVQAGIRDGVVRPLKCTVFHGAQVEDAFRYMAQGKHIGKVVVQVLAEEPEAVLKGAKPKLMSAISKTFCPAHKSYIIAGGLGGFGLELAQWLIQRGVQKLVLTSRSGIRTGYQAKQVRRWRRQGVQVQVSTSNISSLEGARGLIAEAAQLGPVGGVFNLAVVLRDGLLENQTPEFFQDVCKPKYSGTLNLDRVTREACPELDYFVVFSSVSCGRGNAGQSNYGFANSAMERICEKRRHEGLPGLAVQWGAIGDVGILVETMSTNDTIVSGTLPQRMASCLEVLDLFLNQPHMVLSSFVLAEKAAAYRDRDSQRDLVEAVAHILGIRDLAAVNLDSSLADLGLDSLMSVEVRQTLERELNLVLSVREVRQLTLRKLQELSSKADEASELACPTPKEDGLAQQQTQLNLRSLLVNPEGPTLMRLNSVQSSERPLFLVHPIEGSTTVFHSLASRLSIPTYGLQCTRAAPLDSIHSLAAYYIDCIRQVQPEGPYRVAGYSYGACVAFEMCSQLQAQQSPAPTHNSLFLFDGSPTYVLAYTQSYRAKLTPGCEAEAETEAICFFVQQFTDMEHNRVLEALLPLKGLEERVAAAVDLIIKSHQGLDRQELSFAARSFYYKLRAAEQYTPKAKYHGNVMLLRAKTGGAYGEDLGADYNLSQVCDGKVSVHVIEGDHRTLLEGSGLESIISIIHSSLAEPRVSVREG

Regarding `O=C([C@H]1CCCO1)N1CCC(C(F)(F)c2ccc(-c3cnc4ccccc4c3)cc2)CC1` [Example 18, {4-[Difluoro-(4-quinolin-3-yl-phenyl)-methyl]-piperidin-1-yl}-(R)-tetrahydrofuran-2-yl-methanone], the 50% inhibitory concentration (IC50) fell in the range of 0.001 to 0.099 µM.
To `CCC(=O)N1CCC(Cc2ccc(-c3cnc4ccccc4c3Cl)cc2)CC1` [Example 19, 1-{4-[4-(4-Chloroquinolin-3-yl)-benzyl]-piperidin-1-yl}-propan-1-one] belongs 0.001 to 0.099 µM; to `O=C(C1CC1)N1CCC(Cc2ccc(-c3cnc4ccccc4c3Cl)cc2)CC1` [Example 20, {4-[4-(4-Chloroquinolin-3-yl)-benzyl]-piperidin-1-yl}-cyclopropylmethanone], 0.001 to 0.099 µM; to `O=C(C1CC(F)(F)C1)N1CCC(Cc2ccc(-c3cnc4ccccc4c3Cl)cc2)CC1` [Example 21, {4-[4-(4-Chloroquinolin-3-yl)-benzyl]-piperidin-1-yl}-(3,3-difluorocyclobutyl)-methanone], 1 to 10 µM.
Take `O=C([C@H]1CCCO1)N1CCC(Cc2ccc(-c3cnc4ccccc4c3Cl)cc2)CC1` [Example 22, {4-[4-(4-Chloroquinolin-3-yl)-benzyl]-piperidin-1-yl}-(R)-tetrahydrofuran-2-yl-methanone]: the IC50 is 0.001 to 0.099 µM.
To `CCC(=O)N1CCC(Cc2ccc(-c3ccc4cccnc4c3C)cc2)CC1` [Example 23, 1-{4-[4-(8-Methylquinolin-7-yl)-benzyl]-piperidin-1-yl}-propan-1-one] belongs 0.001 to 0.099 µM.
To `Cc1c(-c2ccc(CC3CCN(C(=O)C4CC4)CC3)cc2)ccc2cccnc12` [Example 24, Cyclopropyl-{4-[4-(8-methylquinolin-7-yl)-benzyl]-piperidin-1-yl}-methanone] belongs 0.001 to 0.099 µM.
As to `Cc1c(-c2ccc(CC3CCN(C(=O)[C@H]4CCCO4)CC3)cc2)ccc2cccnc12` [Example 25, {4-[4-(8-Methylquinolin-7-yl)-benzyl]-piperidin-1-yl}-(R)-tetrahydrofuran-2-yl-methanone], the IC50 was 0.001 to 0.099 µM.
For `CCC(=O)N1CCC(Cc2ccc(-c3cc4ccccc4cn3)cc2)CC1` [Example 26, 1-[4-(4-Isoquinolin-3-yl-benzyl)-piperidin-1-yl]-propan-1-one] the value was 1 to 10 µM; for `O=C(C1CC1)N1CCC(Cc2ccc(-c3cc4ccccc4cn3)cc2)CC1` [Example 27, Cyclopropyl-[4-(4-isoquinolin-3-yl-benzyl)-piperidin-1-yl]-methanone], 1 to 10 µM.
For `O=C([C@H]1CCCO1)N1CCC(Cc2ccc(-c3cc4ccccc4cn3)cc2)CC1` [Example 28, [4-(4-Isoquinolin-3-yl-benzyl)-piperidin-1-yl]-(R)-tetrahydrofuran-2-yl-methanone] the value was 0.001 to 0.099 µM.
Take `CCC(=O)N1CCC(Cc2ccc(-c3ccc4cccnc4c3Cl)cc2)CC1` [Example 29, 1-{4-[4-(8-Chloroquinolin-7-yl)-benzyl]-piperidin-1-yl}-propan-1-one]: the IC50 is 0.001 to 0.099 µM.
For `O=C(C1CC1)N1CCC(Cc2ccc(-c3ccc4cccnc4c3Cl)cc2)CC1` [Example 30, {4-[4-(8-Chloroquinolin-7-yl)-benzyl]-piperidin-1-yl}-cyclopropylmethanone] the value was 0.001 to 0.099 µM.
On to `O=C([C@H]1CCCO1)N1CCC(Cc2ccc(-c3ccc4cccnc4c3Cl)cc2)CC1` [Example 31, {4-[4-(8-Chloroquinolin-7-yl)-benzyl]-piperidin-1-yl}-(R)-tetrahydrofuran-2-yl-methanone], for which the IC50 fell in the range of 0.001 to 0.099 µM.
To `CCC(=O)N1CCC(Cc2ccc(-c3ccc4cccnc4c3OC)cc2)CC1` [Example 32, 1-{4-[4-(8-Methoxyquinolin-7-yl)-benzyl]-piperidin-1-yl}-propan-1-one] belongs 0.001 to 0.099 µM; to `COc1c(-c2ccc(CC3CCN(C(=O)C4CC4)CC3)cc2)ccc2cccnc12` [Example 33, Cyclopropyl-{4-[4-(8-methoxyquinolin-7-yl)-benzyl]-piperidin-1-yl}-methanone], 0.001 to 0.099 µM.
